{"source": "patent US9045393B2", "about": "“Derivatives of 3.5-seco-4-norcholestane and use thereof” (TROPHOS, priority 2004, dated 2015)", "key": {"rat motoneurons": {"tested_on": "rat motoneurons", "experiment": "in vitro model of trophic deprivation of rat motoneurons (survival, calcein fluorescence)", "assay_type": "cell-based", "settings": "3 days in basal medium, compared with medium supplemented with neurotrophic factors, ratio greater than 0 = positive effect", "description": "Useful reference may be made to the WO 0142784 Patent Application of the applicant on the cultivation of spinal cord motoneurons.\nThe spinal cord of rat E14 embryos is dissected and the ventral portion is dissociated by trituration after trypsination. The motoneurons are separated from the other spinal cells by a known method (Camu et al., 1993, Purification of spinal motoneurons from chicken and rat embryos by immunopanning. in “Immunoselection Strategies for Neural cell culture”, Neuroprotocols: A companion to Methods in Neurosciences 2, 191-199; Henderson et al., 1993. Neutrophins promote motor neuron survival and are present in embryonic limb bud. Nature 363 (6426): 266-70). The cells are centrifuged on a density gradient. Motoneurons are enriched in the fraction of large cells (the less dense cells). The cells of this fraction are incubated with an anti-p75 antibody, a surface antigen present on motoneurons. Secondary antibodies coupled with magnetic beads are added and the mixture of cells is passed through a column in a magnet (Arce et al., 1999). Only the motoneurons are retained: their purity is of the order of 90%.\nThe motoneurons are sown with low density in culture wells on a substrate of polyornithine-laminin in a neurobasal medium supplemented according to Raoul et al., 1999, Programmed cell death of embryonic motoneurons triggered through the Fas death receptor. J. Cell. Biol. 147(5): 1049-62. Negative controls (absence of trophic factors) and positive controls (in the presence of BDNF (Brain-Derived Neurotrophic Factor) at 1 ng/mL, GDNF (Glial-Derived Neurotrophic Factor) at 1 ng/mL, and CNTF (Ciliary Neurotrophic Factor) at 10 ng/mL, marketed by the US company PEPROTECH, Inc. and the Sigma-Aldrich company), are included in each series.\nThe compounds to be tested are added 60 minutes after sowing and the cultures are maintained at 37° C. under 5% CO2 for 3 days.\nThe motoneurons have a spontaneous tendency of dying in the absence of neurotrophic factors (Pettmann and Henderson, 1998, Neuronal cell death. Neuron 20(4): 633-47). After 3 days, survival is evaluated by measuring fluorescence after incubating the cells in the presence of calcein which becomes fluorescent in living cells.\nAfter 3 days in culture at 37° C., under 5% CO2 and in saturating humidity, up to 50% of the initially sown motoneurons survive in the medium supplemented with neurotrophic factors, while less than 15% of the motoneurons survive in a basal medium alone.\nThe activity of the compounds to be tested was evaluated by their capability of preventing death of motoneurons when they are added to the neurobasal medium as compared with survival of motoneurons in a medium supplemented with neurotrophic factors.\nThis survival rate is expressed by a number, the ratio. If the ratio is greater than 0, the effect of the compounds is positive on the survival of the motoneurons."}, "[1]": {"tested_on": "motoneurons of the facial nucleus", "experiment": "axotomy of the facial nerve in newborn rats, count of motoneurons of the facial nucleus", "assay_type": "in vivo, rat", "settings": "axotomized newborn rats, treated orally, seven days after section"}, "[2]": {"experiment": "Toxicological study in mice", "assay_type": "in vivo", "settings": "intra-peritoneal route, 30 mg/kg/day, daily administration up to 14 days"}}, "data": [{"compound": "3,5-seco-4-nor-cholestan-5-one oxime-3-methyl alcohol [Compound 4]", "values": [{"measurement": "Ratio (survival rate of the motoneurons)", "setting": "rat motoneurons; concentration 3 μM", "value": 0.5}, {"measurement": "increase of survival of the motoneurons of the facial nucleus", "setting": "[1]; dose of 30 mg/kg", "value": "up to 30%"}]}, {"compound": "3,5-seco-4-nor-cholestan-5-one-3-methyl ketone [Compound 13]", "values": [{"measurement": "Ratio (survival rate of the motoneurons)", "setting": "rat motoneurons; concentration 3 μM", "value": 0.7}]}, {"compound": "CNC(=O)CCC1(C)C(=NO)CCC2C1CCC1(C)C(C(C)CCCC(C)C)CCC21", "note": "(stereo not shown) [Compound 1, 3,5-seco-4-nor-cholestan-5-one oxime-3-methyl-amide]", "values": [{"measurement": "Ratio (survival rate of the motoneurons)", "setting": "rat motoneurons; concentration 3 μM", "value": 0.4}]}, {"compound": "CC(C)CCCC(C)C1CCC2C3CCC(=O)C(C)(CCC(C)(C)O)C3CCC12C", "note": "(stereo not shown) [Compound 2, 3,5-seco-4-nor-cholestan-5-one-3-dimethyl alcohol]", "values": [{"measurement": "Ratio (survival rate of the motoneurons)", "setting": "rat motoneurons; concentration 3 μM", "value": 0.5}]}, {"compound": "CC(C)CCCC(C)C1CCC2C3CCC(=NO)C(C)(CCC(C)(C)O)C3CCC12C", "note": "(stereo not shown) [Compound 3, 3,5-seco-4-nor-cholestan-5-one oxime-3-dimethyl alcohol]", "values": [{"measurement": "Ratio (survival rate of the motoneurons)", "setting": "rat motoneurons; concentration 3 μM", "value": 0.7}, {"measurement": "toxicity", "setting": "[2]", "value": "did not show any significant toxicity"}, {"measurement": "increase of survival of the motoneurons of the facial nucleus", "setting": "[1]; dose of 10 mg/kg", "value": "up to 25%"}]}, {"compound": "CNCCCC1(C)C(=NO)CCC2C1CCC1(C)C(C(C)CCCC(C)C)CCC21", "note": "(stereo not shown) [Compound 5, 3,5-seco-4-nor-cholestan-5-one oxime-3-methyl-amine]", "values": [{"measurement": "Ratio (survival rate of the motoneurons)", "setting": "rat motoneurons; concentration 3 μM", "value": 0.3}]}, {"compound": "CON=C1CC[C@H]2[C@@H]3CC[C@H]([C@H](C)CCCC(C)C)[C@@]3(C)CC[C@@H]2[C@@]1(C)CCCO", "note": "[Compound 6, 3,5-seco-4-nor-cholestan-5-one methyloxime-3-ol]", "values": [{"measurement": "Ratio (survival rate of the motoneurons)", "setting": "rat motoneurons; concentration 3 μM", "value": 0.4}]}, {"compound": "CC(C)CCCC(C)C1CCC2C3CCC(=NOCC(=O)O)C(C)(CCCO)C3CCC12C", "note": "(stereo not shown) [Compound 7, 3,5-seco-4-nor-cholestan-5-one carboxymethyl-oxime-3-ol]", "values": [{"measurement": "Ratio (survival rate of the motoneurons)", "setting": "rat motoneurons; concentration 3 μM", "value": 0.4}]}, {"compound": "CC(C)CCCC(C)C1CCC2C3CCC(=NO)C(C)(CCC(=O)O)C3CCC12C", "note": "(stereo not shown) [Compound 8, 3,5-seco-4-nor-cholestan-5-one oxime-3-oic acid]", "values": [{"measurement": "Ratio (survival rate of the motoneurons)", "setting": "rat motoneurons; concentration 3 μM", "value": 0.4}]}, {"compound": "CC(C)CCCC(C)C1CCC2C3CCC(O)C(C)(CCCO)C3CCC12C", "note": "(stereo not shown) [Compound 9, 3,5-seco-4-nor-cholestane-3,5-diol]", "values": [{"measurement": "Ratio (survival rate of the motoneurons)", "setting": "rat motoneurons; concentration 3 μM", "value": 0.4}]}, {"compound": "CC(C)CCCC(C)C1CCC2C3CCC(=O)C(C)(CCCO)C3CCC12C", "note": "(stereo not shown) [Compound 10, 3,5-seco-4-nor-cholestan-5-one-3-ol]", "values": [{"measurement": "Ratio (survival rate of the motoneurons)", "setting": "rat motoneurons; concentration 3 μM", "value": 0.6}]}, {"compound": "CC(C)CCC[C@@H](C)[C@H]1CC[C@H]2[C@@H]3CC/C(=N\\O)[C@](C)(CCCO)[C@H]3CC[C@]12C", "note": "[Compound 11, 3,5-seco-4-nor-cholestan-5-one oxime-3-ol]", "values": [{"measurement": "Ratio (survival rate of the motoneurons)", "setting": "rat motoneurons; concentration 3 μM", "value": 0.8}, {"measurement": "toxicity", "setting": "[2]", "value": "did not show any significant toxicity"}, {"measurement": "increase of survival of the motoneurons of the facial nucleus", "setting": "[1]; dose between 3 and 30 mg/kg, as compared with non-sectioned nerve", "value": "up to 40%"}]}, {"compound": "CC(C)CCCC(C)C1CCC2C3CCC(=NO)C(C)(CCC=NO)C3CCC12C", "note": "(stereo not shown) [Compound 12, 3,5-seco-4-nor-cholestan-5-one oxime-3-one oxime]", "values": [{"measurement": "Ratio (survival rate of the motoneurons)", "setting": "rat motoneurons; concentration 3 μM", "value": 0.7}]}, {"compound": "CC(C)CCCC(C)C1CCC2C3CCC(=O)C(C)(CCC(=O)O)C3CCC12C", "note": "(stereo not shown) [Compound 14, 3,5-seco-4-nor-cholestan-5-one-3-oic acid]", "values": [{"measurement": "Ratio (survival rate of the motoneurons)", "setting": "rat motoneurons; concentration 10 μM", "value": 0.4}]}]}
